Structures can show the parent of a compound that is named as a salt.
Assays:
mexB (PA) strain = assay: Combinational effect with antibacterial agent against Pseudomonas aeruginosa (Test Examples 2 and 4): mexB (PA) strain with LVFX, TC or AZT at 1/4 MIC, EC99; assay type: cell-based; details: mexB (PA) strain, Test Example 4; for EC99, combinational effect with AZT, mexB (PA): combined with AZT at 1/4 MIC; for EC99, combinational effect with LVFX, mexB (PA): combined with LVFX at 1/4 MIC; for EC99, combinational effect with TC, mexB (PA): combined with TC at 1/4 MIC
Outline: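 EC99 denotes the minimum test-compound concentration (range 0–800 μM) that suppresses ≥99% of growth, measured by OD595, when combined with ¼ MIC levofloxacin (LVFX), tetracycline or aztreonam. The efflux-pump mutant mexB (PA), expressing mainly MexAB-OprM, was inoculated at 10^4–5 CFU/well in CAMHB for 16–20 h.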

S-3769 strain = assay: Combinational effect with antibacterial agent against Pseudomonas aeruginosa (Test Examples 2 and 4): S-3769 strain with AMK or GM at 1/4 MIC, EC99; assay type: cell-based; details: S-3769 strain, Test Example 4; for EC99, combinational effect with AMK, S-3769 strain: combined with AMK at 1/4 MIC; for EC99, combinational effect with GM, S-3769 strain: combined with GM at 1/4 MIC
Outline: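 EC99, the lowest test-compound concentration inhibiting growth by ≥99% (OD595), was measured with aminoglycoside AMK or GM held at ¼ MIC. Strain S-3769, a MexY-overexpressing clinical isolate, was cultured in CAMHB at 10^4 to 5 CFU/well for 16–20 h; compound range 0–800 μM.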

Structure (SMILES) | EC99, combinational effect with AZT, mexB (PA) (mexB (PA) strain) | EC99, combinational effect with LVFX, mexB (PA) (mexB (PA) strain) | EC99, combinational effect with TC, mexB (PA) (mexB (PA) strain) | EC99, combinational effect with AMK, S-3769 strain (S-3769 strain) | EC99, combinational effect with GM, S-3769 strain (S-3769 strain)
CCOc1cccc(F)c1CN1CCN(C(=O)[C@H](N)C2CCN(CCc3cscc3-c3ccccc3)CC2)CC1 [Example 540, Hydrobromide of (R)-2-amino-1-(4-(2-ethoxy-6-fluorobenzyl)piperazin-1-yl)-2-(1-(2-(4-phenylthiophen-3-yl)ethyl)piperidin-4-yl)ethan-1-one] | C (100 μM<EC99) | B (25 μM<EC99≤100 μM) | B (25 μM<EC99≤100 μM) | A (12.5 μM<EC99≤25 μM) | A (12.5 μM<EC99≤25 μM)
CCSc1cc(F)ccc1CN1CCN(C(=O)[C@H](N)C2CCN(CCc3ncccc3-c3ccccc3)CC2)CC1 [Example 542, Hydrobromide of (R)-2-amino-1-(4-(2-(ethylthio)-4-fluorobenzyl)piperazin-1-yl)-2-(1-(2-(3-phenylpyridin-2-yl)ethyl)piperidin-4-yl)ethan-1-one] | B (25 μM<EC99≤100 μM) | B (25 μM<EC99≤100 μM) | B (25 μM<EC99≤100 μM) | B (25 μM<EC99≤100 μM) | B (25 μM<EC99≤100 μM)
CCSc1cc(F)ccc1CN1CCN(C(=O)[C@H](N)C2CCN(CCc3cc(Cl)ccc3-c3cccc(N)c3)CC2)CC1 [Example 544, hydrobromide of (R)-2-amino-2-(1-(2-(3′-amino-4-chloro-[1,1′-biphenyl]-2-yl)ethyl)piperidin-4-yl)-1-(4-(2-(ethylthio)-4-fluorobenzyl)piperazin-1-yl)ethan-1-one] | S (EC99≤12.5 μM) | S (EC99≤12.5 μM) | S (EC99≤12.5 μM) | A (12.5 μM<EC99≤25 μM) | S (EC99≤12.5 μM)
CCOc1cccc(F)c1CN1CCN(C(=O)[C@H](N)C2CCN(CCc3cc(Cl)ccc3-c3ccoc3)CC2)CC1 [Example 547, Hydrobromide of (R)-2-amino-2-(1-(5-chloro-2-(furan-3-yl)phenethyl)piperidin-4-yl)-1-(4-(2-ethoxy-6-fluorobenzyl)piperazin-1-yl)ethan-1-one] | B (25 μM<EC99≤100 μM) | B (25 μM<EC99≤100 μM) | C (100 μM<EC99) | S (EC99≤12.5 μM) | S (EC99≤12.5 μM)
CCOc1cccc(F)c1CN1CCN(C(=O)[C@H](N)C2CCN(CCc3cc(Cl)ccc3-c3cccc4ccccc34)CC2)CC1 [Example 548, Hydrobromide of (R)-2-amino-2-(1-(5-chloro-2-(naphthalen-1-yl)phenethyl)piperidin-4-yl)-1-(4-(2-ethoxy-6-fluorobenzyl)piperazin-1-yl)ethan-1-one] | A (12.5 μM<EC99≤25 μM) | S (EC99≤12.5 μM) | A (12.5 μM<EC99≤25 μM) | S (EC99≤12.5 μM) | A (12.5 μM<EC99≤25 μM)
CCOc1cccc(F)c1CN1CCN(C(=O)[C@H](N)C2CCN(CCc3cc(Cl)ccc3-c3coc4ccccc34)CC2)CC1 [Example 549, Hydrobromide of (R)-2-amino-2-(1-(2-(benzofuran-3-yl)-5-chlorophenethyl)piperidin-4-yl)-1-(4-(2-ethoxy-6-fluorobenzyl)piperazin-1-yl)ethan-1-one] | A (12.5 μM<EC99≤25 μM) | A (12.5 μM<EC99≤25 μM) | A (12.5 μM<EC99≤25 μM) | A (12.5 μM<EC99≤25 μM) | A (12.5 μM<EC99≤25 μM)
CCOc1cccc(F)c1CN1CCN(C(=O)[C@H](N)C2CCN(CCc3cc(Cl)ccc3-c3csc4ccccc34)CC2)CC1 [Example 550, Hydrobromide of (R)-2-amino-2-(1-(2-(benzo[b]thiophen-3-yl)-5-chlorophenethyl)piperidin-4-yl)-1-(4-(2-ethoxy-6-fluorobenzyl)piperazin-1-yl)ethan-1-one] | A (12.5 μM<EC99≤25 μM) | S (EC99≤12.5 μM) | A (12.5 μM<EC99≤25 μM) | A (12.5 μM<EC99≤25 μM) | A (12.5 μM<EC99≤25 μM)
CSc1ccccc1CN1CCN(C(=O)[C@H](N)C2CCN(CCc3cc(Cl)ccc3-c3cccc(F)c3)CC2)CC1 [Example 551, Hydrobromide of (R)-2-amino-2-(1-(2-(4-chloro-3′-fluoro-[1,1-biphenyl]-2-yl)ethyl)piperidin-4-yl)-1-(4-(2-(methylthio)benzyl)piperazin-1-yl)ethan-1-one] | S (EC99≤12.5 μM) | S (EC99≤12.5 μM) | S (EC99≤12.5 μM) | B (25 μM<EC99≤100 μM) | A (12.5 μM<EC99≤25 μM)
CSc1ccccc1CN1CCN(C(=O)[C@H](N)C2CCN(CCc3cc(Cl)ccc3C3=CCCNC3)CC2)CC1 [Example 553, Hydrobromide of (R)-2-amino-2-(1-(5-chloro-2-(1,2,5,6-tetrahydropyridin-3-yl)phenethyl)piperidin-4-yl)-1-(4-(2-(methylthio)benzyl)piperazin-1-yl)ethan-1-one] | A (12.5 μM<EC99≤25 μM) | S (EC99≤12.5 μM) | S (EC99≤12.5 μM) | S (EC99≤12.5 μM) | S (EC99≤12.5 μM)
CCSc1cc(F)ccc1CN1CCN(C(=O)[C@H](N)C2CCN(CCc3cc(Cl)ccc3-c3cccc(F)c3)CC2)CC1 [Example 554, Hydrobromide of (R)-2-amino-2-(1-(2-(4-chloro-3′-fluoro-[1,1-biphenyl]-2-yl)ethyl)piperidin-4-yl)-1-(4-(2-(ethylthio)-4-fluorobenzyl)piperazin-1-yl)ethan-1-one] | S (EC99≤12.5 μM) | S (EC99≤12.5 μM) | S (EC99≤12.5 μM) | A (12.5 μM<EC99≤25 μM) | S (EC99≤12.5 μM)
CSc1ccccc1CN1CCN(C(=O)[C@H](N)C2CCN(CCc3cc(Cl)ccc3-c3ccccc3N)CC2)CC1 [Example 556, Hydrobromide of (R)-2-amino-2-(1-(2-(2′-amino-4-chloro-[1,1-biphenyl]-2-yl)ethyl)piperidin-4-yl)-1-(4-(2-(methylthio)benzyl)piperazin-1-yl)ethan-1-one] | S (EC99≤12.5 μM) | S (EC99≤12.5 μM) | S (EC99≤12.5 μM) | B (25 μM<EC99≤100 μM) | B (25 μM<EC99≤100 μM)
CCOc1cccc(F)c1CN1CCN(C(=O)[C@H](N)C2CCN(CCc3cc(Cl)ccc3-c3cccc(N)c3F)CC2)CC1 [Example 557, Hydrobromide of (R)-2-amino-2-(1-(2-(3′-amino-4-chloro-2′-fluoro-[1,1-biphenyl]-2-yl)ethyl)piperidin-4-yl)-1-(4-(2-ethoxy-6-fluorobenzyl)piperazin-1-yl)ethan-1-one] | S (EC99≤12.5 μM) | S (EC99≤12.5 μM) | S (EC99≤12.5 μM) | A (12.5 μM<EC99≤25 μM) | A (12.5 μM<EC99≤25 μM)
CCOc1cccc(F)c1CN1CCN(C(=O)[C@H](N)C2CCN(CCc3cc(Cl)ccc3-c3cc(N)cc(F)c3)CC2)CC1 [Example 558, Hydrobromide of (R)-2-amino-2-(1-(2-(3′-amino-4-chloro-5′-fluoro-[1,1-biphenyl]-2-yl)ethyl)piperidin-4-yl)-1-(4-(2-ethoxy-6-fluorobenzyl)piperazin-1-yl)ethan-1-one] | A (12.5 μM<EC99≤25 μM) | S (EC99≤12.5 μM) | A (12.5 μM<EC99≤25 μM) | S (EC99≤12.5 μM) | S (EC99≤12.5 μM)
CCOc1cccc(F)c1CN1CCN(C(=O)[C@H](N)C2CCN(CCc3cc(Cl)ccc3-c3cc(N)ccc3F)CC2)CC1 [Example 559, Hydrobromide of (R)-2-amino-2-(1-(2-(5′-amino-4-chloro-2′-fluoro-[1,1-biphenyl]-2-yl)ethyl)piperidin-4-yl)-1-(4-(2-ethoxy-6-fluorobenzyl)piperazin-1-yl)ethan-1-one] | S (EC99≤12.5 μM) | S (EC99≤12.5 μM) | S (EC99≤12.5 μM) | A (12.5 μM<EC99≤25 μM) | S (EC99≤12.5 μM)

From US20250326744A1, “PIPERAZINE DERIVATIVE OR SALT THEREOF, AND PHARMACEUTICAL COMPOSITION” (priority 2022, published 2025)
